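Each compound was tested at five concentrations against cells in 96-well plates for 48 hours. Here, GI50 denotes the concentration required for 50% inhibition of growth. TGI: total growth inhibition.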

Among the test systems are COLO 205 colon; HS 578T breast; LOX IMVI melanoma; SF-295 CNS; SK-OV-3 ovarian; SN12C renal; SNB-19 CNS; U251 CNS; CAKI-1 renal; SNB-75 CNS.
Test in all cases: NCI tumour cell line growth inhibition, 48 h

Take `NCCCNc1ccc2c(c1)[n+]([O-])c1ccccc1[n+]2[O-]`: the TGI was 45.2 µM with COLO 205 colon; 60 µM in the assay with HS 578T breast; 94.3 µM in the assay on LOX IMVI melanoma; more than 100 µM in the assay on SF-295 CNS; 50.4 µM with SK-OV-3 ovarian; more than 100 µM with SN12C renal. The TGI in the assay on SNB-19 CNS is more than 100 µM; with U251 CNS, 91.9 µM.

With `COc1cc2[nH]c(C(=O)c3cc(OC)c(OC)c(OC)c3)c(N)c2cc1C#CCO`, the GI50 in the assay with CAKI-1 renal is 0.537 µM; with COLO 205 colon, 0.268 µM; in the assay with HS 578T breast, 0.345 µM; with LOX IMVI melanoma, 0.502 µM; in the assay on SK-OV-3 ovarian, 0.482 µM; in the assay on SN12C renal, 1.4 µM. Besides, the GI50 is 0.41 µM with SNB-19 CNS and 0.431 µM with U251 CNS. The TGI in the assay with CAKI-1 renal was more than 100 µM; in the assay with COLO 205 colon, 0.842 µM; with HS 578T breast, 72.3 µM; with LOX IMVI melanoma, 21.5 µM; in the assay on SK-OV-3 ovarian, more than 100 µM; in the assay with SN12C renal, 98.3 µM. Further, the TGI in the assay on SNB-19 CNS and in the assay with U251 CNS was more than 100 µM in each case.

With `Nc1ccccc1NC(=O)c1ccc(CSc2nc(N3CCOCC3)c3cccn3n2)cc1`, the GI50 is 1.07 µM in the assay with COLO 205 colon; 0.781 µM with HS 578T breast; 0.49 µM with LOX IMVI melanoma; 1.6 µM with SF-295 CNS; 0.79 µM in the assay on SK-OV-3 ovarian; 1.38 µM with SN12C renal. Besides, the GI50 is 2.67 µM in the assay with SNB-19 CNS, 0.32 µM in the assay on SNB-75 CNS and 0.565 µM in the assay with U251 CNS. Also, the TGI with COLO 205 colon was 2.96 µM; in the assay with HS 578T breast, more than 100 µM; with LOX IMVI melanoma, 3.22 µM; in the assay with SF-295 CNS, 17.2 µM; in the assay on SK-OV-3 ovarian, 6.43 µM; in the assay on SN12C renal, more than 100 µM. In addition, the TGI in the assay on SNB-19 CNS was more than 100 µM; in the assay with SNB-75 CNS, 15.6 µM; with U251 CNS, 5.61 µM.

Turning to `CON(C)C(=O)C(Cc1ccccc1)NC(=O)OC(C)(C)C` (centres undefined), the TGI with COLO 205 colon, with HS 578T breast, in the assay on SF-295 CNS, in the assay with SK-OV-3 ovarian, in the assay on SN12C renal and with SNB-19 CNS was more than 100 µM in each case. Also, the TGI with SNB-75 CNS and in the assay with U251 CNS was more than 100 µM in each case.

Take `[N-]=[N+]=NC1(N=[N+]=[N-])C(=O)NN=C(c2ccccc2)C1=O` (centres undefined): the TGI with COLO 205 colon was more than 100 µM; in the assay on HS 578T breast, more than 100 µM; in the assay on LOX IMVI melanoma it was 92.9 µM; with SF-295 CNS, more than 100 µM; with SK-OV-3 ovarian, more than 100 µM; with SN12C renal, more than 100 µM. In addition, the TGI in the assay with SNB-75 CNS and with U251 CNS was more than 100 µM throughout.

On to `CC(=O)CC(=O)N(CCN(C(=O)CC(C)=O)c1ccccc1)c1ccccc1`, for which the TGI with CAKI-1 renal, in the assay with COLO 205 colon, in the assay on LOX IMVI melanoma, in the assay on SF-295 CNS, in the assay on SK-OV-3 ovarian and with SN12C renal was more than 100 µM each time. Moreover, the TGI in the assay with SNB-19 CNS, in the assay on SNB-75 CNS and with U251 CNS was more than 100 µM each time.

With `O=C1CN(c2cccc(C(F)(F)F)c2)C(=O)CN1NCNN1CC(=O)N(c2cccc(C(F)(F)F)c2)CC1=O`, the TGI with COLO 205 colon, in the assay with HS 578T breast, with SF-295 CNS, with SK-OV-3 ovarian, with SN12C renal and in the assay on SNB-19 CNS was more than 100 µM each time. The TGI in the assay with SNB-75 CNS and in the assay with U251 CNS was more than 100 µM each time.

Turning to `C=C1C(=O)O[C@@H]2[C@H]1CC[C@H](C)[C@]1(O)CCC(=O)[C@@]21C`, the TGI with COLO 205 colon, in the assay with HS 578T breast, with LOX IMVI melanoma, with SF-295 CNS, in the assay with SK-OV-3 ovarian and in the assay with SN12C renal was more than 10 µM in each case. Also, the TGI in the assay with SNB-19 CNS, with SNB-75 CNS and with U251 CNS was more than 10 µM throughout.

With `CCCCCCCCN(CCCCCCCC)C(=N)c1ccnc2ccccc12`, the GI50 with CAKI-1 renal was 1.17 µM; in the assay on COLO 205 colon it was 0.2 µM; with HS 578T breast, 1.71 µM; in the assay with SF-295 CNS, 1.52 µM; in the assay on SK-OV-3 ovarian, 1.61 µM; with SN12C renal it was 1.16 µM. Besides, the GI50 is 1.55 µM with SNB-19 CNS, 1.01 µM in the assay with SNB-75 CNS and 1.23 µM in the assay on U251 CNS. The TGI in the assay with CAKI-1 renal stood at 2.44 µM; in the assay on COLO 205 colon, 0.445 µM; in the assay on HS 578T breast, 4.81 µM; with SF-295 CNS, 2.92 µM; in the assay with SK-OV-3 ovarian it was 3 µM; with SN12C renal, 2.68 µM. Moreover, the TGI in the assay with SNB-19 CNS came out at 3.17 µM; in the assay on SNB-75 CNS, 2.36 µM; in the assay on U251 CNS, 2.58 µM.

On to `C[C@H](c1ccc(Cl)cc1N)N1C(=O)c2cc(I)ccc2N(CCCN2CCN(C)CC2)C(=O)[C@@H]1c1ccc(Cl)cc1`, for which the GI50 in the assay on CAKI-1 renal is 1.3 µM; in the assay with HS 578T breast, 1.74 µM; with SK-OV-3 ovarian it was 1.81 µM; in the assay with SN12C renal, 1.59 µM; with SNB-19 CNS it was 1.52 µM; in the assay with U251 CNS, 1.52 µM. Moreover, the TGI in the assay with CAKI-1 renal was found to be 2.81 µM; in the assay on HS 578T breast, 3.84 µM; in the assay on SK-OV-3 ovarian, 3.2 µM; in the assay on SN12C renal it was 3.03 µM; with SNB-19 CNS, 2.9 µM; with U251 CNS, 2.85 µM.

In the case of `CCN1C(=O)N(CC)C2C1NN=c1s/c(=C3\C(=O)N(CCC(C)C)c4ccccc43)c(=O)n12` (centres undefined), the GI50 was 0.686 µM in the assay on CAKI-1 renal; 1.08 µM in the assay on HS 578T breast; 1.34 µM in the assay with SF-295 CNS; 2.53 µM with SK-OV-3 ovarian; 2.01 µM in the assay with SN12C renal; 2.39 µM in the assay with SNB-19 CNS. Moreover, the GI50 was 0.802 µM with SNB-75 CNS and 1.88 µM in the assay on U251 CNS. Also, the TGI in the assay on CAKI-1 renal is 4.17 µM; in the assay on HS 578T breast it was 4.87 µM; with SF-295 CNS it was 3.86 µM; in the assay on SK-OV-3 ovarian, 18 µM; in the assay on SN12C renal, 4.99 µM; in the assay on SNB-19 CNS it was 11.5 µM. Moreover, the TGI in the assay on SNB-75 CNS amounted to 2.5 µM; with U251 CNS it was 9.81 µM.

In the case of `C[C@]12CCC[C@H](OC=O)C1(O)C[C@H](C(=O)O)CC2` (some centres undefined), the TGI in the assay on CAKI-1 renal, in the assay on COLO 205 colon, with LOX IMVI melanoma, in the assay with SF-295 CNS, in the assay on SK-OV-3 ovarian and in the assay on SN12C renal was more than 100 µM throughout. Also, the TGI in the assay on SNB-19 CNS, with SNB-75 CNS and with U251 CNS was more than 100 µM each time.

On to `CS(=O)(=O)c1ccc(N/N=C/c2c(-c3ccc(S(C)(=O)=O)cc3)[nH]c3ccc(F)cc23)cc1`, for which the GI50 is more than 50 µM in the assay with CAKI-1 renal; 2.86 µM with COLO 205 colon; 1.24 µM with LOX IMVI melanoma; 0.934 µM in the assay on SF-295 CNS; 3.27 µM with SK-OV-3 ovarian; 2.97 µM with SN12C renal. Also, the GI50 in the assay on SNB-19 CNS is 2.36 µM; with SNB-75 CNS, 1.52 µM; in the assay on U251 CNS it was 1.47 µM. Moreover, the TGI is more than 50 µM in the assay on CAKI-1 renal; more than 50 µM in the assay with COLO 205 colon; 3.64 µM with LOX IMVI melanoma; 1.89 µM in the assay with SF-295 CNS; more than 50 µM with SK-OV-3 ovarian; more than 50 µM in the assay with SN12C renal. Further, the TGI in the assay with SNB-19 CNS is more than 50 µM; in the assay with SNB-75 CNS it was 40 µM; in the assay on U251 CNS it was more than 50 µM.

As for `CN1CCC23c4c5ccc(O)c4OC2C(=NN=C2CCC4(O)C6Cc7ccc(O)c8c7C4(CCN6C)C2O8)CCC3(O)C1C5` (centres undefined), the TGI with CAKI-1 renal, in the assay with COLO 205 colon, with LOX IMVI melanoma, in the assay with SF-295 CNS, in the assay on SK-OV-3 ovarian and in the assay on SN12C renal was more than 100 µM throughout. Further, the TGI in the assay with SNB-19 CNS, in the assay with SNB-75 CNS and in the assay on U251 CNS was more than 100 µM in each case.

Turning to `C#C[C@@]1(O)[C@@H](CO)O[C@@H](n2cc(Cl)c3c(N)ncnc32)[C@@H]1O`, the GI50 is 0.106 µM with COLO 205 colon; 1.07 µM in the assay with HS 578T breast; 0.0541 µM with LOX IMVI melanoma; 0.202 µM in the assay on SF-295 CNS; 0.143 µM in the assay with SK-OV-3 ovarian; 0.021 µM in the assay with SNB-19 CNS. In addition, the GI50 in the assay with SNB-75 CNS is 0.283 µM. Also, the TGI with COLO 205 colon is 0.379 µM; with HS 578T breast it was more than 26.5 µM; in the assay on LOX IMVI melanoma, 0.253 µM; in the assay with SF-295 CNS it was 3.2 µM; in the assay on SK-OV-3 ovarian, 0.517 µM; in the assay with SNB-19 CNS it was 0.294 µM. In addition, in the assay on SNB-75 CNS, the TGI stood at 0.714 µM.

In the case of `O=C(O)C(=O)Cc1ccc2c(c1)OCO2`, the TGI in the assay with CAKI-1 renal, in the assay with COLO 205 colon, with LOX IMVI melanoma, with SF-295 CNS, with SK-OV-3 ovarian and with SN12C renal was more than 100 µM each time. Further, the TGI with SNB-19 CNS, in the assay with SNB-75 CNS and in the assay on U251 CNS was more than 100 µM throughout.

For the origin of these results see PubChem BioAssay (NCI).
